In ChEMBL document CHEMBL4049386, “Discovery of an Inhibitor of the Proteasome Subunit Rpn11” (J Med Chem, 2017) one finds IC50 and solubility data, which are given here for 40 compounds.

Data set [1] addresses T1, STAM-binding protein (Homo sapiens, UniProt O95630).
T1 sequence (O95630 whole entry): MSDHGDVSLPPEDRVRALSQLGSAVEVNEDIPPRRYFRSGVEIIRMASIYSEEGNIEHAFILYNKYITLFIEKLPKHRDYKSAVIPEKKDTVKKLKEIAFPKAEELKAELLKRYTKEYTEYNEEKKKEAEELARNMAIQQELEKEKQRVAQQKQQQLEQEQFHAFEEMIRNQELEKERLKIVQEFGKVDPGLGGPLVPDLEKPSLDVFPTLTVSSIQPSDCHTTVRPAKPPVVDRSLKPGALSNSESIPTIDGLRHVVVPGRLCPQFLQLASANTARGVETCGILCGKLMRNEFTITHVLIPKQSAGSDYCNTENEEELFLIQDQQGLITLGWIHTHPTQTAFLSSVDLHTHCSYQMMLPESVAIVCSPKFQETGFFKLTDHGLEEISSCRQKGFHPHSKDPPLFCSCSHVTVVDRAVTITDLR
Nature of the data set: Inhibition of AMSH (unknown origin) using DiUbK63TAMRA as substrate by fluorescence assay.

For data set [2], the target named is T2, 26S proteasome non-ATPase regulatory subunit 14 (Homo sapiens, UniProt O00487). Nature of the data set: Inhibition of 26S proteasome regulatory subunit RPN11 deubiquitinating activity in human erythrocytes using Ub4-pepOG protein substrate preincubated for 1 hr followed by substrate addition measured after 80 mins by fluorescence polarization assay.
T2 sequence (O00487 whole entry): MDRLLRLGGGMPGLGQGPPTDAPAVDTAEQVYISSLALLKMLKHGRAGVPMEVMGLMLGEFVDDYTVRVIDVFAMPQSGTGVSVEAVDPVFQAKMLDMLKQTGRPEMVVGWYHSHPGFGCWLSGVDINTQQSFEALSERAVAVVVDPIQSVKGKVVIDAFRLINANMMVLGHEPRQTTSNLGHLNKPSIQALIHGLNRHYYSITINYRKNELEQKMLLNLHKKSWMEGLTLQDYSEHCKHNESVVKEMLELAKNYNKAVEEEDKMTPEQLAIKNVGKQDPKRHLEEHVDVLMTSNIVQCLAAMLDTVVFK
In data set [3] the target is T2, 26S proteasome non-ATPase regulatory subunit 14. Nature of the data set: Inhibition of 26S proteasome regulatory subunit RPN11 deubiquitinating activity in beta5 inhibitor MG132 pretreated human HeLa cells expressing UbG76V-GFP assessed as reduction in UbG76V-GFP degradation rate by fluorescence microscopic method. It is filed as cell-based.
The target in data set [4] is COP9 signalosome complex subunit 5 (Homo sapiens, UniProt Q92905). Nature of the data set: Inhibition of CSN5 (unknown origin) using SCFskp2-Nedd8OG as substrate after 1 hr by fluorescence polarization assay. In general terms: Polarisation of emitted light reports the rotation of a fluorescent probe.
Chain of COP9 signalosome complex subunit 5 (Q92905 whole entry, one chain of several): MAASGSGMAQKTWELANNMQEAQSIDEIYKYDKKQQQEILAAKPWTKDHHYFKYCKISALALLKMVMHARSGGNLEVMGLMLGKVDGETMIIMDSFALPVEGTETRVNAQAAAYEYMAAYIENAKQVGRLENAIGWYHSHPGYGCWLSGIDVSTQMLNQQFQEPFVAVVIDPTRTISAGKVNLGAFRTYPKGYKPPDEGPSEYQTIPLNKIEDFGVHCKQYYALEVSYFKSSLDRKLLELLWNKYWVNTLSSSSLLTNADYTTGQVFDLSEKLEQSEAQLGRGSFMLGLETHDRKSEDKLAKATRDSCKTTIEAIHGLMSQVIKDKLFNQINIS
Data set [5] is described as follows: Aqueous solubility of the compound. It is filed as physicochemical. To be noted: buffer.
Data set [6] has as its system HCT-116. The experiment in a line: cells. To be noted: Homo sapiens, HCT-116, 72 h.
Description: Antiproliferative activity against human HCT116 cells after 72 hrs by Cell Titer-Glo assay
Data set [7] deals with 72 kDa type IV collagenase (Homo sapiens, UniProt P08253). The experiment in a line: Inhibition of recombinant human MMP2 catalytic domain (Tyr110 to Asp452 residues) expressed in yeast using Mca-Pro-Leu-Gly-Leu-Dpa-Ala-Arg-NH2.AcOH as substrate preincubated for 30 mins followed by substrate addition measured every minute for 20 mins by fluorescence assay.
Chain of 72 kDa type IV collagenase (P08253 whole entry, the tested form may be a part): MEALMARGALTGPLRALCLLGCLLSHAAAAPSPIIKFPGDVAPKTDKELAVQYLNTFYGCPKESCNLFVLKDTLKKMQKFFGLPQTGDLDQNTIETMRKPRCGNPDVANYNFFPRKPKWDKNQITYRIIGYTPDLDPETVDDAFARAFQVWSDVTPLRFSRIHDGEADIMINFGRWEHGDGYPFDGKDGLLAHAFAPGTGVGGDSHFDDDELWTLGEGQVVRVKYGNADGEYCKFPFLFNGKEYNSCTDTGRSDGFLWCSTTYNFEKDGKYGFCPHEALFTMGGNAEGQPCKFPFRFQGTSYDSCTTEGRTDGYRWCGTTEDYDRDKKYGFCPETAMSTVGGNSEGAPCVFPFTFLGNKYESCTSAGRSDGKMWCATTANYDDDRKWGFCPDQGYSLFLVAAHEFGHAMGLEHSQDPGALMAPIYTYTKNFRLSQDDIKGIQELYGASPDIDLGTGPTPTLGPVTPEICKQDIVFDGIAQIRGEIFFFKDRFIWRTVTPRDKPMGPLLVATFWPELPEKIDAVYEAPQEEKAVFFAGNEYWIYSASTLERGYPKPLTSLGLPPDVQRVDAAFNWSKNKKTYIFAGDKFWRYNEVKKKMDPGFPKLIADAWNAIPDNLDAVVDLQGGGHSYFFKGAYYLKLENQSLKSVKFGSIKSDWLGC

A value given as a limit tells only on which side of the number the result lay.

One may read the IC50 as the concentration needed to halve the response being measured. Turning to `CNC(=O)c1cnc2c(SSc3cccc4cc(C(=O)NC)cnc34)cccc2c1`, in data set [1], the half-inhibitory concentration (IC50) stood at 4.1 µM.

Compound `O=C(NCc1cccs1)c1ccnc2c(SSc3cccc4c(C(=O)NCc5cccs5)ccnc34)cccc12` gave a half-inhibitory concentration (IC50) in data set [2] of 1 µM.

For the compound `O=C(O)c1cnc2c(SSc3cccc4cc(C(=O)O)cnc34)cccc2c1`, in data set [2], the IC50 turned out to be 1.1 µM.

For `O=C(NCc1ccco1)c1ccnc2c(SSc3cccc4c(C(=O)NCc5ccco5)ccnc34)cccc12`, half-maximal inhibition in data set [2] (IC50) required 2.2 µM.

For the compound `COC(=O)CNC(=O)c1cnc2c(SSc3cccc4cc(C(=O)NCC(=O)OC)cnc34)cccc2c1`, the IC50 was over 2 µM in data set [2], 2.2 µM in data set [1], over 0.3 µM in data set [3] and over 100 µM in data set [4].

In turn, `COC(=O)c1ccc2cccc(SSc3cccc4ccc(C(=O)OC)nc34)c2n1` had an IC50 in data set [2] of over 50 µM.

`O=C(NCc1ccccc1)c1cnc2c(SSc3cccc4cc(C(=O)NCc5ccccc5)cnc34)cccc2c1`: the IC50 in data set [1] and in data set [3] was over 10 µM each time.

Take `NC(=O)c1cnc2c(SSc3cccc4cc(C(N)=O)cnc34)cccc2c1`: the IC50 in data set [1] stood at 1.7 µM; in data set [3] it was 1.2 µM; in data set [4] it was 15.3 µM.

Regarding `O=C(NCc1ccc(C(F)(F)F)cc1)c1cnc2c(SSc3cccc4cc(C(=O)NCc5ccc(C(F)(F)F)cc5)cnc34)cccc2c1`, the IC50 was 0.8 µM in data set [2], 3.5 µM in data set [1], over 10 µM in data set [3] and over 100 µM in data set [4]. Besides, in data set [5], the solubility entry was “Insoluble”.

In the case of `COC(=O)c1ccnc2c(SSc3cccc4c(C(=O)OC)ccnc34)cccc12`, inhibition in data set [2] was half-maximal at 1 µM (IC50).

In the case of `O=C(NCC1CCCO1)c1cnc2c(SSc3cccc4cc(C(=O)NCC5CCCO5)cnc34)cccc2c1` (stereo not given), the solubility result in data set [5] is given as “Soluble”. The IC50 in data set [3] came out at 1 µM.

With `O=C(NCc1cccs1)c1cnc2c(SSc3cccc4cc(C(=O)NCc5cccs5)cnc34)cccc2c1`, in data set [5], the solubility entry is “Soluble”. Besides, the IC50 in data set [3] came to 5 µM.

As to `O=C(NCc1ccccc1)c1ccc2cccc(SSc3cccc4ccc(C(=O)NCc5ccccc5)nc34)c2n1`, the IC50 in data set [2] is over 100 µM.

As for `CSc1cccc2cccnc12`, the IC50 in data set [2] and in data set [6] was over 100 µM each time.

In the case of `Sc1cccc2ccccc12`, the IC50 in data set [2] and in data set [6] was over 100 µM in each case.

In the case of `O=C(Nc1ncco1)c1cnc2c(SSc3cccc4cc(C(=O)Nc5ncco5)cnc34)cccc2c1`, the IC50 is 2.6 µM in data set [2], 5 µM in data set [1], over 10 µM in data set [3] and 15 µM in data set [4]. For the same compound, the solubility result in data set [5] was “Soluble”.

Consider `O=C(NCc1ccccn1)c1cnc2c(SSc3cccc4cc(C(=O)NCc5ccccn5)cnc34)cccc2c1`, for which the IC50 in data set [2] is 4 µM; in data set [1], 17 µM; in data set [3] it was over 10 µM; in data set [4] it was over 50 µM. Besides, the solubility result in data set [5] is “Soluble”.

Consider `O=C(NCCc1nccs1)c1ccc2c(SSc3cccc4nc(C(=O)NCCc5nccs5)ccc34)cccc2n1`, for which the IC50 in data set [2] is over 100 µM; in data set [1] it was over 100 µM; in data set [3], over 100 µM; in data set [4], 35 µM.

For the compound `Oc1cccc2cccnc12` [OXYQUINOLINE], the IC50 in data set [2] was over 100 µM; in data set [6], 6 µM.

For `COC(=O)c1cnc2c(SSc3cccc4cc(C(=O)OC)cnc34)cccc2c1`, the IC50 in data set [2] was determined as 0.9 µM.

As for `O=C(NCCc1nccs1)c1cnc2c(O)cccc2c1`, the IC50 in data set [2] was over 40 µM; in data set [1], over 100 µM; in data set [3] it was over 100 µM; in data set [4], over 100 µM.

On to `COc1ccc(CNC(=O)c2cnc3c(SSc4cccc5cc(C(=O)NCc6ccc(OC)cc6)cnc45)cccc3c2)cc1`, for which the half-maximal inhibitory concentration (IC50) was under 0.2 µM in data set [2] and over 10 µM in data set [3]. Further, in data set [5], the solubility result was “Insoluble”.

Turning to `O=C(O)c1ccnc2c(SSc3cccc4c(C(=O)O)ccnc34)cccc12`, the IC50 in data set [2] was 1.3 µM.

`Cc1ccc2cccc(S)c2n1`: the IC50 was over 100 µM in data set [2], over 100 µM in data set [4], over 50 µM in data set [6] and over 200 µM in data set [7].

`Sc1cccc2ncccc12`: the IC50 in data set [2] and in data set [6] was over 100 µM throughout.

In the case of `Nc1cccc2cccnc12` [8-AMINOQUINOLINE], in data set [2], the IC50 is over 100 µM.

As for `Cc1cccc2cccnc12`, the IC50 in data set [2] and in data set [6] was over 100 µM each time.

For `O=C(NCc1ccncc1)c1cnc2c(SSc3cccc4cc(C(=O)NCc5ccncc5)cnc34)cccc2c1`, the IC50 in data set [2] is 0.2 µM; in data set [1], 0.5 µM; in data set [3] it was over 10 µM; in data set [4], 7 µM.

As for `O=C(NCc1cccnc1)c1cnc2c(SSc3cccc4cc(C(=O)NCc5cccnc5)cnc34)cccc2c1`, the half-maximal inhibitory concentration (IC50) in data set [2] is 3.2 µM; in data set [3], over 10 µM; in data set [4] it was over 100 µM. Besides, the solubility result in data set [5] was “Soluble”.

As for `O=C(NCc1nccs1)c1cnc2c(SSc3cccc4cc(C(=O)NCc5nccs5)cnc34)cccc2c1`, the solubility entry in data set [5] was “Soluble”. Besides, in data set [4], the IC50 came out at 24 µM.

As to `O=C(NCc1ccc(F)cc1)c1cnc2c(SSc3cccc4cc(C(=O)NCc5ccc(F)cc5)cnc34)cccc2c1`, the IC50 in data set [2] was under 0.2 µM; in data set [1], 0.9 µM; in data set [3], over 10 µM. Further, the solubility entry in data set [5] is “Insoluble”.

In the case of `O=C(NCCc1cccs1)c1cnc2c(SSc3cccc4cc(C(=O)NCCc5cccs5)cnc34)cccc2c1`, in data set [5], the solubility entry is recorded as “Soluble”. Further, the half-maximal inhibitory concentration (IC50) in data set [3] is 5 µM.

For the compound `O=C(NCCN1CCOCC1)c1cnc2c(SSc3cccc4cc(C(=O)NCCN5CCOCC5)cnc34)cccc2c1`, the IC50 in data set [1] is 26 µM; in data set [3], over 10 µM; in data set [4] it was over 100 µM.

Turning to `O=C(NCc1cccs1)c1ccc2cccc(SSc3cccc4ccc(C(=O)NCc5cccs5)nc34)c2n1`, the IC50 in data set [2] is over 100 µM.

For `O=C(CNC(=O)c1cnc2c(SSc3cccc4cc(C(=O)NCC(=O)NCC(=O)OCc5ccccc5)cnc34)cccc2c1)NCC(=O)OCc1ccccc1`, the IC50 was over 5 µM in data set [2], 3.5 µM in data set [1], over 10 µM in data set [3] and over 30 µM in data set [4].

In the case of `CSc1cccc2cc(C(=O)NCCc3nccs3)cnc12`, the IC50 is over 40 µM in data set [2], over 100 µM in data set [1], over 100 µM in data set [3] and over 100 µM in data set [4].

Regarding `O=C(NCc1ccco1)c1cnc2c(SSc3cccc4cc(C(=O)NCc5ccco5)cnc34)cccc2c1`, the solubility entry in data set [5] is on record as “Soluble”. Moreover, the IC50 was 1 µM in data set [3] and under 0.5 µM in data set [4].

Turning to `O=C(O)c1ccc2cccc(SSc3cccc4ccc(C(=O)O)nc34)c2n1`, in data set [2], the IC50 is over 20 µM.

Turning to `O=C(NCCc1ccco1)c1cnc2c(SSc3cccc4cc(C(=O)NCCc5ccco5)cnc34)cccc2c1`, the solubility result in data set [5] was “Soluble”. In addition, the IC50 in data set [3] was 1.4 µM.

`O=C(NCc1ccc2c(c1)OCO2)c1cnc2c(SSc3cccc4cc(C(=O)NCc5ccc6c(c5)OCO6)cnc34)cccc2c1`: the IC50 in data set [1] is under 0.2 µM; in data set [3], over 10 µM. The solubility entry in data set [5] is “Insoluble”.
